The test system of one assay is 22RV1 cells. The assay is described as follows: Inhibition of the proliferation of drug-resistant prostate cancer cell 22RV1 (CCK-8). The following applies: 22RV1 cells (enzalutamide-resistant), same method. It counts as cell-based. As to the method:
(1) Experimental materials and instruments: LNCaP/AR cell line and 22RV1 cell line (provided by Sichuan Kangcheng Biotechnology Co., Ltd.) Fetal bovine serum FBS (Gibco, Cat. No. 10099-141) 0.01M PBS (Biosharp, Cat. No. 162262) RIPM1640 medium (Hyclone, Cat. No. 308090.01) Penicillin-Streptomycin (Hyclone, Cat. No. SV30010) Cell counting kit-8 (Signalway Antibody, Cat. No. CP002) DMSO (Sigma, Cat. No. D5879) Centrifuge Tube, 15 ml (Excell Bio, Cat. No. CS015-0001) Cell Culture Dish, (Excell Bio, Cat. No. CS016-0128) 96-well cell culture plate (Corning, Cat. No. 3599) Microplate reader (Thermo Multiskan MK3 type)
a. Preparation of Buffer Cell culture medium: RIPM1640 medium, 10% FBS, 1% Pen Strep: PBS buffer: PBS powder was dissolved in 2 L of ultrapure water and sterilized. b. Experimental Procedures 1) LNCaP/AR cells were subcultured in cell culture media, and then the cells in good growth condition were seeded in a 96-well plate at 80 μL/well (1000 cells/well), and cultured overnight in a 37° C., 5% CO2 cell incubator. 2) The drug was prepared into a 10 mM stock solution with dimethyl sulfoxide (DMSO). Prior to use, the stock solution was diluted in a ratio of […] with DMSO, and then diluted at a 3-fold gradient to obtain 9 serial concentrations. Then, each concentration of compound was further diluted in a ratio of 1:200 with the culture medium (to ensure that the DMSO concentration in the culture system was 0.1%), and two wells were set for each concentration. 20 μL of the diluted compound solution was added to the well of the cell culture (with a final concentration of 10 μM, 3.3 μM, 1.1 μM . . . ), and then the plate was gently tapped to thoroughly mix. In addition, the experiment included 3 negative control wells only containing cells and 3 blank control wells only containing culture medium (6 wells were each added with DMSO diluted in a ratio of 1:200 with 20 μL of culture medium). c. Result Detection: 1) After culturing for 6 days, 10 μL of CCK-8 was added to each well, and the plate was further incubated for 1 h in a 37° C., 5% CO2 cell incubator. 2) The absorbance (OD value) was measured at 450 nm with a multifunctional microplate reader. 3) The data was analyzed by the Dose-response-inhibition equation in the software GraphPad Prism5, and the IC50 value was obtained. 2. Biological assay of the inhibition on the proliferation of other drug-resistant prostate cancer cells
The same test method was used to determine the inhibitory activity of the compound according to the present invention against drug-resistant prostate cancer cell 22RV1.

The next assay concerns LNCaP/AR cells. In words: Inhibition of the proliferation of LNCap/AR cells (CCK-8). It counts as cell-based. Conditions: read-out: LNCap/AR IC50. Summed up:
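LNCaP/AR cells (1000/well, RPMI1640 + 10% FBS) were treated for 6 days at 37 °C with 9-point 3-fold dilutions from 10 μM final, 0.1% DMSO, in duplicate. Viability was read by CCK-8 absorbance at 450 nm after 1 h, and IC50 came from a dose-response-inhibition fit.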

Setting [1] is: 144 h, LNCaP/AR cells, 6 days culture, CCK-8.
[2] abbreviates: LNCaP/AR cells, 6 days culture, CCK-8.

The structures appear in SMILES notation. Where two headings read alike, the source gives them in different places.

Turning to `CC(=O)O[C@@H]1C[C@@H](C(=O)N[C@@H](C)c2ccc(-c3scnc3C)cc2)N(C(=O)[C@@H](NC(=O)COCCCCCN(c2ccc(C#N)c(Cl)c2)c2cc(-c3c(C)n[nH]c3C)ccc2C)C(C)(C)C)C1` [Compound 45], the IC50 is greater than 2000 nM in the assay with 22RV1 cells (Homo sapiens) and 501 to 2000 nM in the assay with LNCaP/AR cells (LNCaP/AR, 144 h).

As for `Cc1ccc(-c2c(C)noc2C)cc1N(CCCCCCNc1ccc2c(c1)CN(C1CCC(=O)NC1=O)C2=O)c1ccc(C2(C#N)CC2)cc1` (centres unmarked) [Compound 61, 1-(4-((5-(3,5-dimethylisoxazol-4-yl)-2-methylphenyl)(6-((2-(2,6-dioxopiperidin-3-yl)-1-oxoisoindolin-5-yl)amino)hexyl)amino)phenyl)cyclopropane-1-nitrile], the IC50 with 22RV1 cells (Homo sapiens) and with LNCaP/AR cells (setting [1]) was less than 100 nM throughout.

In the case of `Cc1ccc(-c2c(C)noc2C)cc1N(CCCCNc1ccc2c(c1)CN(C1CCC(=O)NC1=O)C2=O)c1ccc(C2(C#N)CC2)cc1` (centres unmarked) [Compound 62, 1-(4-((5-(3,5-dimethylisoxazol-4-yl)-2-methylphenyl)(4-((2-(2,6-dioxopiperidin-3-yl)-1-oxoisoindolin-5-yl)amino)butyl)amino)phenyl)cyclopropane-1-nitrile], the IC50 with 22RV1 cells (Homo sapiens) and with LNCaP/AR cells (setting [1]) was less than 100 nM in each case.

Regarding `Cc1ccc(-c2c(C)noc2C)cc1N(CCN1CCN(c2ccc3c(c2)C(=O)N(C2CCC(=O)NC2=O)C3=O)CC1)c1ccc(C2(C#N)CC2)cc1` (centres unmarked) [Compound 64, 1-(4-((5-(3,5-Dimethylisoxazol-4-yl)-2-methylphenyl)(2-(4-(2-(2,6-dioxopiperidin-3-yl)-1,3-dioxoisoindolin-5-yl)piperazin-1-yl)ethyl)amino)phenyl)cyclopropane-1-nitrile], the results for the IC50 in the assay on 22RV1 cells (Homo sapiens) and with LNCaP/AR cells (setting [1]) were less than 100 nM and 501 to 2000 nM, respectively.

Take `Cc1ccc(-c2c(C)noc2C)cc1N(CCN1CCN(c2ccc3c(c2)CN(C2CCC(=O)NC2=O)C3=O)CC1)c1ccc(C2(C#N)CC2)cc1` (centres unmarked) [Compound 65, 1-(4-((5-(3,5-dimethylisoxazol-4-yl)-2-methylphenyl)(2-(4-(2-(2,6-dioxopiperidin-3-yl)-1-oxoisoindolin-5-yl)piperazin-1-yl)ethyl)amino)phenyl)cyclopropane-1-nitrile]: the IC50 with 22RV1 cells (Homo sapiens) lay in the range of 101 to 500 nM; in the assay with LNCaP/AR cells (setting [1]), 501 to 2000 nM.

Regarding `Cc1ccc(-c2c(C)noc2C)cc1N(c1ccc(C2(C#N)CC2)cc1)C1CN(C2CCN(c3ccc4c(c3)C(=O)N(C3CCC(=O)NC3=O)C4=O)CC2)C1` (centres unmarked) [Compound 66], the IC50 in the assay with 22RV1 cells (Homo sapiens) is less than 100 nM; in the assay on LNCaP/AR cells (setting [1]), 101 to 500 nM.

Turning to `Cc1ccc(-c2c(C)noc2C)cc1N(c1ccc(C2(C#N)CC2)cc1)C1CN(CC2CN(c3ccc4c(c3)C(=O)N(C3CCC(=O)NC3=O)C4=O)C2)C1` (centres unmarked) [Compound 67, 1-(4-((5-(3,5-dimethylisoxazol-4-yl)-2-methylphenyl)(1-((1-(2-(2,6-dioxopiperidin-3-yl)-1,3-dioxoisoindolin-5-yl)azetidin-3-yl)methyl)azetidine-3-yl)amino)phenyl)cyclopropane-1-carbonitrile], the results for the IC50 in the assay with 22RV1 cells (Homo sapiens) and in the assay on LNCaP/AR cells (setting [1]) were less than 100 nM and 101 to 500 nM, respectively.

Regarding `Cc1ccc(-c2c(C)noc2C)cc1N(c1ccc(C2(C#N)CC2)cc1)C1CN(C2CC(Nc3cc4c(cc3F)C(=O)N([C@H]3CCC(=O)NC3=O)C4)C2)C1` (some centres unmarked) [Compound 69, 1-(4-((5-(3,5-dimethylisoxazol-4-yl)-2-methylphenyl)(1-((1 s,3s)-3-((2-(2,6-dioxopiperidin-3-yl)-6-fluoro-1-oxoisoindolin-5-yl)amino)cyclobutyl)azetidin-3-yl)amino)phenyl)cyclopropane-1-nitrile], the IC50 with 22RV1 cells and with LNCaP/AR cells (setting [2]) was greater than 2000 nM throughout.

For `Cc1ccc(-c2c(C)noc2C)cc1N(CC1CN([C@H]2C[C@@H](Nc3cc4c(cc3F)C(=O)N(C3CCC(=O)NC3=O)C4=O)C2)C1)c1ccc(C2(C#N)CC2)cc1` (some centres unmarked) [Compound 71, 1-(4-((5-(3,5-dimethylisoxazol-4-yl)-2-methylphenyl)((1-((1s,3s)-3-((2-(2,6-dioxopiperidin-3-yl)-6-fluoro-1,3-dioxoisoindolin-5-yl)amino)cyclobutyl)azetidin-3-yl)methyl)amino)phenyl)cyclopropane-1-nitrile], the IC50 in the assay on 22RV1 cells (Homo sapiens) and in the assay on LNCaP/AR cells (setting [1]) was greater than 2000 nM each time.

In the case of `Cc1ccc(-c2c(C)noc2C)cc1N(CC1CN([C@H]2C[C@H](Nc3cc4c(cc3F)C(=O)N(C3CCC(=O)NC3=O)C4=O)C2)C1)c1ccc(C2(C#N)CC2)cc1` (some centres unmarked) [Compound 72, 1-(4-((5-(3,5-dimethylisoxazol-4-yl)-2-methylphenyl][(1-((1r,3r)-3-((2-(2,6-dioxopiperidin-3-yl)-6-fluoro-1,3-dioxoisoindolin-5-yl)amino)cyclobutyl)azetidin-3-yl)methyl)amino)phenyl)cyclopropane-1-nitrile], the IC50 in the assay with 22RV1 cells (Homo sapiens) and with LNCaP/AR cells (setting [1]) was greater than 2000 nM each time.

With `Cc1ccc(-c2c(C)noc2C)cc1N(c1ccc(C2(C#N)CC2)cc1)C1CN(C2CCC(Nc3cc4c(cc3F)C(=O)N(C3CCC(=O)NC3=O)C4=O)CC2)C1` (centres unmarked) [Compound 73, 1-(4-((5-(3,5-dimethylisoxazol-4-yl)-2-methylphenyl)(1-((1s,4s)-4-((2-(2,6-dioxopiperidin-3-yl)-6-fluoro-1,3-dioxoisoindolin-5-yl)amino)cyclohexyl)azetidin-3-yl)amino)phenyl)cyclopropane-1-nitrile], the IC50 in the assay on 22RV1 cells and in the assay with LNCaP/AR cells (setting [2]) was greater than 2000 nM throughout.

In the case of `Cc1ccc(-c2c(C)noc2C)cc1N(c1ccc(C2(C#N)CC2)cc1)C1CN([C@H]2CC[C@H](Nc3cc4c(cc3F)C(=O)N(C3CCC(=O)NC3=O)C4=O)CC2)C1` (some centres unmarked) [Compound 74], the IC50 with 22RV1 cells and with LNCaP/AR cells (setting [2]) was greater than 2000 nM throughout.

Regarding `Cc1ccc(-c2c(C)noc2C)cc1N(CC1CN(C2CCN(c3ccc4c(c3)C(=O)N(C3CCC(=O)NC3=O)C4)CC2)C1)c1ccc(C2(C#N)CC2)cc1` (centres unmarked) [Compound 75, 1-(4-((5-(3,5-dimethylisoxazol-4-yl)-2-methylphenyl)((1-(1-(2-(2,6-dioxopiperidin-3-yl)-3-oxoisoindolin-5-yl)piperidin-4-yl)azetidin-3-yl)methyl)amino)phenyl)cyclopropane-1-carbonitrile], the IC50 with 22RV1 cells (Homo sapiens) and with LNCaP/AR cells (setting [1]) was greater than 2000 nM in each case.

In the case of `Cc1ccc(-c2c(C)noc2C)cc1N(CC1CN(C2CCN(c3ccc4c(c3)CN(C3CCC(=O)NC3=O)C4=O)CC2)C1)c1ccc(C2(C#N)CC2)cc1` (centres unmarked) [Compound 76, 1-(4-((5-(3,5-dimethylisoxazol-4-yl)-2-methylphenyl)((1-(1-(2-(2,6-dioxopiperidin-3-yl)-1-oxoisoindolin-5-yl)piperidinyl-4-yl)azetidin-3-yl)methyl)amino)phenyl)cyclopropane-1-carbonitrile], the IC50 in the assay with 22RV1 cells (Homo sapiens) and in the assay with LNCaP/AR cells (setting [1]) was greater than 2000 nM in each case.

As to `Cc1ccc(-c2c(C)noc2C)cc1N(CC1CCN(C2CCN(c3ccc4c(c3)C(=O)N(C3CCC(=O)NC3=O)C4=O)CC2)CC1)c1ccc(C2(C#N)CC2)cc1` (centres unmarked) [Compound 77, 1-(4-((5-(3,5-dimethylisoxazol-4-yl)-2-methylphenyl)((1′-(2-(2,6-dioxopiperidin-3-yl)-1,3-dioxoisoindolin-5-yl)-[1,4′-bipiperidine]-4-yl)methyl)amino)phenyl)cyclopropane-1-nitrile], the IC50 in the assay on 22RV1 cells (Homo sapiens) was greater than 2000 nM; with LNCaP/AR cells (LNCaP/AR, 144 h), greater than 2000 nM.

Turning to `Cc1ccc(-c2c(C)noc2C)cc1N(CC1CCN(CC2CN(c3ccc4c(c3)C(=O)N(C3CCC(=O)NC3=O)C4=O)C2)CC1)c1ccc(C2(C#N)CC2)cc1` (centres unmarked) [Compound 78, 1-(4-((5-(3,5-dimethylisoxazol-4-yl)-2-methylphenyl)((1-((1-(2-(2,6-dioxopiperidin-3-yl)-1,3-dioxoisoindolin-5-yl)azetidin-3-yl)methyl)piperidin-4-yl)methyl)amino)phenyl)cyclopropane-1-carbonitrile], the IC50 with 22RV1 cells (Homo sapiens) and in the assay with LNCaP/AR cells (setting [1]) was greater than 2000 nM each time.

For the origin of these results see US20220257774A1, “AROMATIC AMINE AR AHD BET TARGETING PROTEIN DEGRADATION CHIMERA COMPOUND AND USE” (HINOVA PHARMACEUTICALS INC., priority 2019, published 2022).
